From patent US20090022726A1, “METHOD OF USING IL6 ANTAGONISTS WITH PROTEASOME INHIBITORS” (priority 2005, published 2009)
Entries after “also recorded” stand apart in the source; their conditions may differ.

Assays:
ANBL-6 cells [1] = experiment: Apoptosis assay, KNK437 with bortezomib; assay type: cell-based; conditions: ANBL-6, KNK437 with bortezomib, 12 hours, compared with control treated cells
Protocol: (§1) ANBL-6 and KAS-6 cells were incubated with 10 mcg/ml (ANBL-6) or 1 mcg/ml (KAS-6) of CNTO 328 or the control antibody, F105, for 8 (ANBL-6) to 12 (KAS-6) hours. Apoptosis was determined using an ELISA-based assay that measures the presence of mono- and oligo-nucleosomes (Roche Applied Science, Indianapolis, Ind.) and expressed as a fold increase in apoptosis over DMSO and F105-treated controls. Cells were treated in RPMI 1640 media containing 10% FBS and 1 ng/mL of IL-6 (FIGS. 3 A and B, column height represents the mean of triplicate cultures; bars, SEM).
(§2) ANBL-6 or MEF cells (control and HSF-1−/−) were incubated with either DMSO control or increasing concentrations of bortezomib and KNK437 for 12 (ANBL-6) to 24 hours (MEFs). Apoptosis was determined as described above and expressed as a fold increase in apoptosis over DMSO-treated controls. ANBL-6 cells were treated in RPMI 1640 media containing 10% FBS and 1 ng/mL of IL-6 (FIG. 5, columns, mean of triplicate cultures; bars, SEM).

[2] = system: normal mouse embryo fibroblasts (MEFs); experiment: Apoptosis assay, KNK437 with bortezomib; assay type: cell-based; conditions: normal (HSF-1+/+) MEFs, 24 hours
Protocol: as §1, §2

HSF-1 knockout MEFs = experiment: Apoptosis assay, KNK437 with bortezomib; assay type: cell-based, mouse; conditions: 24 hours
Protocol: as §1, §2

KAS-6 cells [3] = experiment: Apoptosis, KNK437 with bortezomib; assay type: cell-based
[4] = system: IL-6 signaling, HSP-70 and MKP-1 in ANBL-6 cells; experiment: Immunoblot analysis of IL-6 signaling, HSP-70 and MKP-1 with densitometry; assay type: cell-based
Protocol: ANBL-6 cells were incubated with 10 mcg/ml of CNTO 328 or the control antibody, F105, with or without increasing concentrations of bortezomib for 8 hours. Cell lysates were prepared and subjected to immunoblot analysis. Blots were stripped and probed for HSC-70 to ensure equal protein loading per lane. Densitometry was performed on HSP-70 and MKP-1 immunoblots.

[5] = system: refractory or relapsed myeloma; conditions: refractory or relapsed disease, initial phase II clinical trial (Richardson et al. 2003); cited from earlier work
proteasome = conditions: over human leukocyte elastase, cathepsin G, chymotrypsin and thrombin; cited from earlier work
ANBL-6 cells [6] = experiment: WST-1 cell viability, antibody alone; assay type: cell-based; conditions: increasing concentrations, 24 and 48 hours, 1 ng/mL of IL-6
Protocol: (§3) ANBL-6 and KAS-6 cells (Dr. Diane Jelinek, Mayo Clinic, Rochester, Minn.) were incubated with increasing concentrations of CNTO 328 or the isotype control antibody, F105, for 24 and 48 hours. For the last 4 hours, the cells were incubated in the presence of WST-1 (Roche Applied Science, Indianapolis, Ind.). Reduction of WST-1 into a water soluble formazan salt by viable cells was measured at an absorbance of 450 nm using an ELISA plate reader. Viability was measured as percent viability relative to untreated cells. All cells were treated in RPMI 1640 media containing 10% FBS and 1 ng/mL of IL-6.

KAS-6 cells [7] = experiment: WST-1 cell viability, antibody alone; assay type: cell-based; conditions: increasing concentrations, 24 and 48 hours, 1 ng/mL of IL-6
Protocol: as §3

ANBL-6 cells [8] = experiment: WST-1 cell viability, antibody combined with bortezomib; assay type: cell-based
Protocol: as §3
(§4) The ANBL-6, KAS-6, or IL-6-independent RPMI 8226 myeloma cell lines were pre-incubated with 0.1 mcg/ml (KAS-6) or 10 mcg/ml (ANBL-6 and RPMI 8226) of the control antibody, F105, or CNTO 328 for 24 hours, followed by co-incubation with either DMSO control or increasing concentrations of bortezomib in the continued presence of F105 or CNTO 328 for another 24 hours. For sequencing experiments, ANBL-6 cells were treated with: 1) F105 or CNTO 328 for 24 hours followed by F105 or CNTO 328 and bortezomib 5 nM for another 24 hours (antibody→bortezomib); 2) F105 or CNTO 328 and bortezomib 5 nM concurrently for 24 hours (antibody+bortezomib), or bortezomib at 5 nM for 12 hours followed by F105 or CNTO 328 for 24 hours (bortezomib→antibody). Cell viability was assayed as described above and measured as percent viability relative to untreated cells. All cells were treated in RPMI 1640 media containing 10% FBS and 1 ng/mL of IL-6. Columns, mean of quintuplicate cultures; bars, SEM.

[9] = system: IL-6-independent RPMI 8226 myeloma cell line; experiment: as above; assay type: cell-based; conditions: RPMI 8226, 10 mcg/ml antibody pre-incubated 24 hours, then bortezomib 24 hours
Protocol: as §3, §4

KAS-6 cells [10] = experiment: as above; assay type: cell-based; conditions: KAS-6, 0.1 mcg/ml antibody pre-incubated 24 hours, then bortezomib 24 hours; relative to control antibody F105
Protocol: as §3, §4

ANBL-6 cells [11] = experiment: ELISA-based apoptosis assay (mono- and oligo-nucleosomes), antibody and bortezomib; assay type: cell-based; conditions: ANBL-6, 10 mcg/ml CNTO 328 with bortezomib, 8 hours
Protocol: as §1

KAS-6 cells [12] = experiment: as above; assay type: cell-based; conditions: KAS-6, 1 mcg/ml CNTO 328 with bortezomib, 12 hours
Protocol: as §1

[13] = system: IL-6-independent myeloma cell line RPMI 8226; experiment: ELISA-based apoptosis assay, antibody and bortezomib; assay type: cell-based; conditions: RPMI 8226, data not shown
[14] = system: IL-6 signaling in KAS-6 cells; experiment: Down-regulation of IL-6 signaling (phospho-protein levels); assay type: cell-based
[15] = 10 mcg/ml CNTO 328 with bortezomib, 8 hours, densitometry
[16] = CNTO 328 with bortezomib, immunoblot

O=CN1CC/C(=C\c2ccc3c(c2)OCO3)C1=O [KNK437]
bortezomib-mediated apoptosis (fold increase over DMSO-treated controls) (ANBL-6 cells [1]): significant increase in bortezomib-mediated apoptosis | synergistic activity with bortezomib (apoptosis) [2]: reproduced | synergistic activity with bortezomib (apoptosis) (HSF-1 knockout MEFs): blunted | apoptotic activity of bortezomib (KAS-6 cells [3]): enhanced the apoptotic activity of bortezomib

CC(C)C[C@H](NC(=O)[C@H](Cc1ccccc1)NC(=O)c1cnccn1)B(O)O [bortezomib, reference compound]
levels of phospho-STAT-3 ([4]; 8 hours, immunoblot): decreased levels | levels of phospho-p42/44 MAPK ([4]; 8 hours, immunoblot): decreased levels | patients with partial responses or better [5]: 27% | selectivity for the proteasome over other serine proteases (proteasome): > 500 fold

CNTO 328: chimeric monoclonal IL-6 neutralizing antibody
cell viability (percent viability relative to untreated cells) (ANBL-6 cells [6]): dose- and time-dependent reduction in cell viability | cell viability (percent viability relative to untreated cells) (KAS-6 cells [7]): dose- and time-dependent reduction in cell viability | effect on cytotoxicity of bortezomib (cell viability) (ANBL-6 cells [8]; ANBL-6, 10 mcg/ml antibody pre-incubated 24 hours, then bortezomib 24 hours, relative to control antibody F105): potentiated the cytotoxicity of bortezomib | effect on cytotoxicity of bortezomib, sequencing (ANBL-6 cells [8]; ANBL-6, antibody 24 hours followed by antibody and bortezomib 5 nM 24 hours (antibody→bortezomib)): enhanced the cytotoxicity of bortezomib most | effect on cytotoxicity of bortezomib, sequencing (ANBL-6 cells [8]; ANBL-6, antibody and bortezomib 5 nM concurrently for 24 hours (antibody+bortezomib)): enhanced the cytotoxicity of bortezomib most | effect on cytotoxicity of bortezomib, sequencing (ANBL-6 cells [8]; ANBL-6, bortezomib 5 nM 12 hours followed by antibody 24 hours (bortezomib→antibody)): little additional effect | effect on activity of bortezomib (cell viability) [9]: did not enhance the activity of bortezomib | effect on cytotoxicity of bortezomib (cell viability) (KAS-6 cells [10]): potentiated the cytotoxicity of bortezomib | induction of apoptosis (fold increase over DMSO and F105-treated controls) (ANBL-6 cells [11]): enhanced induction of apoptosis; also recorded: greater than the sum of the two individual agents alone | induction of apoptosis (fold increase over DMSO and F105-treated controls) (KAS-6 cells [12]): enhanced induction of apoptosis; also recorded: greater than the sum of the two individual agents alone | potentiation of apoptosis [13]: not able to potentiate apoptosis | decrease of bortezomib-mediated induction of HSP-70 [4, 15]: 45% | decrease of bortezomib-mediated induction of MKP-1 [4, 15]: 90% | levels of phospho-STAT-3 ([4]; 8 hours, immunoblot): reduction in levels | levels of phospho-p42/44 MAPK ([4]; 8 hours, immunoblot): reduction in levels | levels of hyperphosphorylated HSF-1 [4, 16]: decreased levels | levels of transcriptionally active phospho-STAT-1 [4, 16]: decreased levels | phospho-STAT-3 and phospho-p42/44 MAPK levels [14]: marked decrease
